Where a name gives a salt, the structure may show the parent alone. Read-outs that look alike come from different tables or passages of the source.
Target: T1, CRTH2 (KB8 cells) (Homo sapiens, UniProt Q9Y5Y4)
T1 construct: host or cells: KB8 cells (human CRTH2 expression cell)
T1 sequence (Q9Y5Y4 1-395): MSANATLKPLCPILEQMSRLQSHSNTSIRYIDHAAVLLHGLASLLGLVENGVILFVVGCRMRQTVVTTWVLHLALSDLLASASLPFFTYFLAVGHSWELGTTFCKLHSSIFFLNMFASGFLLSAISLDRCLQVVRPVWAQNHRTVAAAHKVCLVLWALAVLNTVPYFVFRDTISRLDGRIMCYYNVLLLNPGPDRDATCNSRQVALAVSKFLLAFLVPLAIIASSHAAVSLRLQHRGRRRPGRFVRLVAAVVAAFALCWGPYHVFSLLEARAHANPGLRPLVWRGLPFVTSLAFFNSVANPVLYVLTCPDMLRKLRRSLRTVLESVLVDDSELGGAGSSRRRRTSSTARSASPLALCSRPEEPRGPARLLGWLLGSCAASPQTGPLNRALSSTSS
Assay: CRTH2 antagonist test (PGD2-induced intracellular calcium ion concentration increase in KB8 cells)
Assay type: cell-based
Experimental: The antagonist activity of the compound of the present invention was considered by using the intracellular calcium ion concentration increase reaction induced when the prostaglandin D2 was added to KB8 cells.
Fluo-4-AM (4-(6-acetoxymethoxy-2,7-difluoro-3-oxo-9-xanthenyl)-4′-methyl-2,2′-(ethylenedioxy)dianilide-N,N,N′,N′-tetraacetic acid tetrakis(acetoxymethyl) ester (SIGMA, final concentration: 1 μM) was added to KB8 cells, and the cells were incubated at 37° C. for 30 min, washed with phosphate buffer (Invitrogen), and then suspended in Hank's balanced salt solution (Invitrogen)) containing a reaction buffer solution (10 mM HEPES (Invitrogen), and 1 mM calcium chloride (SIGMA). The suspension was dispensed in a 96 well plate (Nunc) so that 2×10^5 cells/well were placed, and the compound of the present invention and PGD2 (final concentration: 100 nM) were added. The fluorescence intensity thereof was measured over time by using FDSS6000 (Hamamatsu Photonics), and thus the maximum fluorescence intensity value “d” was obtained. The same procedure was carried out in the absence of the compound, and the maximum fluorescence intensity value “e” was obtained; and the same procedure was carried out in the absence of the compound and […], and the maximum fluorescence intensity value “f” was obtained.
The calcium ion concentration increase inhibition rate of a compound was calculated by the following calculation formula: Inhibitory rate(%)=[1−(d−f)/(e−f)]×100
That is to say, by using calcium ion concentration increase inhibitory rates of compounds to be tested having various concentrations, the IC50 value was calculated according to a dose-dependent inhibition curve analyzed by using XLfit (IDBS) as a data analysis software, and the value was defined as an indicator of the antagonist activity. In Tables, A denotes an inhibitory activity showing the IC50 value of less than 50 nM; B denotes an inhibitory activity showing the IC50 value of 50 nM or greater and less than 500 nM; C denotes an inhibitory activity showing the IC50 value of 500 nM or greater and less than 1000 nM; and D denotes an inhibitory activity showing the IC50 value of 1000 nM or greater.

[1] = PGD2 final concentration 100 nM, Fluo-4-AM fluorescence, read-out: antagonist activity (IC50 value, inhibition of calcium ion concentration increase)

Row | Compound | IC50 [1] | IC50 (PGD2 100 nM, Fluo-4 calcium fluorescence, read-out: CRTH2 antagonist activity IC50 value)
1 | COc1ccc2[nH]c(C(=O)Nc3ccc(C(=O)c4ncc(CC(=O)O)c5ccccc45)cc3)cc2c1 [Example 96] | < 50 nM | 
2 | O=C(O)Cc1cnc(C(=O)c2ccc(NC(=O)c3c[nH]cn3)cc2)c2ccccc12 [Example 97] | ≥ 1000 nM | 
3 | O=C(O)Cc1cnc(C(=O)c2ccc(NC(=O)c3cccnn3)cc2)c2ccccc12 [Example 98] | ≥ 1000 nM | 
4 | COc1cc(C(=O)Nc2ccc(C(=O)c3ncc(CC(=O)O)c4ccccc34)cc2)ccc1C [Example 100] | < 50 nM | 
5 | Cc1ccc(C(=O)Nc2ccc(C(=O)c3ncc(CC(=O)O)c4ccccc34)cc2)cc1C [Example 101] | < 50 nM | 
6 | Cc1ccc2sc(C(=O)Nc3ccc(C(=O)c4ncc(CC(=O)O)c5ccccc45)cc3)cc2c1 [Example 102] | < 50 nM | 
7 | Cc1cc(C)cc(C(=O)Nc2ccc(C(=O)c3ncc(CC(=O)O)c4ccccc34)cc2)c1 [Example 103] | < 50 nM | 
8 | O=C(O)Cc1cnc(C(=O)c2ccc(NC(=O)c3cccc4cccnc34)cc2)c2ccccc12 [Example 104] | ≥ 1000 nM | 
9 | COc1ccc(C(=O)Nc2ccc(C(=O)c3ncc(CC(=O)O)c4ccccc34)cc2)cc1OC [Example 106] | 50 to 500 nM | 
10 | NS(=O)(=O)c1ccc(C(=O)Nc2ccc(C(=O)c3ncc(CC(=O)O)c4ccccc34)cc2)cc1 [Example 109] | 50 to 500 nM | 
11 | CC(C)(C)c1ccc(C(=O)Nc2ccc(C(=O)c3ncc(CC(=O)O)c4ccccc34)cc2)cc1 [Example 111] | < 50 nM | 
12 | O=C(O)Cc1cnc(C(=O)c2ccc(NC(=O)c3cnc4ccccc4c3)cc2)c2ccccc12 [Example 112] | < 50 nM | 
13 | O=C(O)Cc1cnc(C(=O)c2ccc(NC(=O)c3ccc(C4CCCCC4)cc3)cc2)c2ccccc12 [Example 114] | < 50 nM | 
14 | O=C(O)Cc1cnc(C(=O)c2ccc(NC(=O)c3ccc4occc4c3)cc2)c2ccccc12 [Example 116] | < 50 nM | 
15 | O=C(O)Cc1cnc(C(=O)c2ccc(NC(=O)c3ccc4nccnc4c3)cc2)c2ccccc12 [Example 117] | 500 to 1000 nM | 
16 | O=C(O)Cc1cnc(C(=O)c2ccc(NC(=O)c3cc(F)c(F)c(F)c3F)cc2)c2ccccc12 [Example 118] | 500 to 1000 nM | 
17 | O=C(O)Cc1cnc(C(=O)c2ccc(NC(=O)c3cc4ccccc4s3)cc2)c2ccccc12 [Example 119] | < 50 nM | 
18 | O=C(O)Cc1cnc(C(=O)c2ccc(NC(=O)c3cn4ccccc4n3)cc2)c2ccccc12 [Example 121] | 50 to 500 nM | 
19 | O=C(O)Cc1cnc(C(=O)c2ccc(NC(=O)c3cc4cc(F)ccc4[nH]3)cc2)c2ccccc12 [Example 122] | < 50 nM | 2.3 nM
20 | Cn1c(C(=O)Nc2ccc(C(=O)c3ncc(CC(=O)O)c4ccccc34)cc2)cc2ccccc21 [Example 123] | < 50 nM | 
21 | O=C(O)Cc1cnc(C(=O)c2ccc(NC(=O)c3ccc4cnccc4n3)cc2)c2ccccc12 [Example 124] | 500 to 1000 nM | 
22 | Cc1c(F)c(F)c(C(=O)Nc2ccc(C(=O)c3ncc(CC(=O)O)c4ccccc34)cc2)c(F)c1F [Example 125] | 500 to 1000 nM | 
23 | O=C(O)Cc1cnc(C(=O)c2ccc(NC(=O)Cc3c[nH]c4ccccc34)cc2)c2ccccc12 [Example 126] | < 50 nM | 

Second part, the molecule after the results:

Row | IC50 [1] | IC50 (PGD2 100 nM, Fluo-4 calcium fluorescence, read-out: CRTH2 antagonist activity IC50 value) | Compound
24 | < 50 nM |  | Cc1ccc(C(=O)Nc2ccc(C(=O)c3ncc(CC(=O)O)c4ccccc34)cc2)cc1Cl [Example 99]
25 | 500 to 1000 nM |  | O=C(O)Cc1cnc(C(=O)c2ccc(NC(=O)c3ccc4cccnc4n3)cc2)c2ccccc12 [Example 105]
26 | < 50 nM |  | Cc1cc(C(=O)Nc2ccc(C(=O)c3ncc(CC(=O)O)c4ccccc34)cc2)ccc1Cl [Example 107]
27 | < 50 nM |  | COc1ccc(C(=O)Nc2ccc(C(=O)c3ncc(CC(=O)O)c4ccccc34)cc2)cc1Cl [Example 108]
28 | < 50 nM |  | CCCOc1ccc(C(=O)Nc2ccc(C(=O)c3ncc(CC(=O)O)c4ccccc34)cc2)cc1 [Example 110]
29 | < 50 nM |  | O=C(O)Cc1cnc(C(=O)c2ccc(NC(=O)c3cc4ccccc4cn3)cc2)c2ccccc12 [Example 113]
30 | < 50 nM |  | CC(C)Oc1ccc(C(=O)Nc2ccc(C(=O)c3ncc(CC(=O)O)c4ccccc34)cc2)cc1 [Example 115]
31 | < 50 nM |  | CCCCCCc1ccc(C(=O)Nc2ccc(C(=O)c3ncc(CC(=O)O)c4ccccc34)cc2)cc1 [Example 120]
32 | < 50 nM |  | O=C(O)Cc1cnc(C(=O)c2ccc(C(=O)Nc3ccc(Cl)cc3)cc2)c2ccccc12 [Example 140]
33 | ≥ 1000 nM |  | O=C(O)Cc1cnc(C(=O)c2ccc(Oc3ccccc3)cc2)c2ccccc12 [Example 145]
34 | 50 to 500 nM |  | O=C(O)Cc1cnc(C(=O)c2ccc(COCCc3ccc(Cl)cc3)cc2)c2ccccc12 [Example 146, {1-[(4-{[2-(4-chlorophenyl)ethoxy]methyl}phenyl)carbonyl]isoquinolin-4-yl}acetic acid]
35 | ≥ 1000 nM |  | O=C(O)Cc1cnc(C(=O)c2ccc(CNCc3ccc(Cl)cc3)cc2)c2ccccc12 [Example 147, {1-[(4-{[(4-chlorobenzyl)amino]methyl}phenyl)carbonyl]isoquinolin-4-yl}acetic acid hydrochloride]
36 | 500 to 1000 nM |  | O=C(O)Cc1cnc(Cc2ccc(OCCc3ccc(Cl)cc3)cc2)c2ccccc12 [Example 149, (1-{4-[2-(4-chlorophenyl)ethoxy]benzyl}isoquinolin-4-yl)acetic acid]
37 | 50 to 500 nM |  | O=C(O)Cc1cnc(Cc2ccc(OCCCc3ccc(Cl)cc3)cc2)c2ccccc12 [Example 150]
38 | 50 to 500 nM |  | O=C(O)Cc1cnc(Cc2ccc(OCCOc3ccc(Cl)cc3)cc2)c2ccccc12 [Example 151]
39 | 50 to 500 nM |  | O=C(O)Cc1cnc(Cc2ccc(S(=O)(=O)NCCc3ccc(Cl)cc3)cc2)c2ccccc12 [Example 152, [1-(4-{[2-(4-chlorophenyl)ethyl]sulfamoyl}benzyl)isoquinolin-4-yl]acetic acid]
40 | 50 to 500 nM |  | O=C(O)Cc1cnc(Cc2ccc(C(=O)NCc3ccc(Cl)cc3)cc2)c2ccccc12 [Example 154]
41 | < 50 nM |  | O=C(O)Cc1cnc(Cc2ccc(C(=O)NCCc3cccc(Cl)c3)cc2)c2ccccc12 [Example 155]
42 | 50 to 500 nM |  | COc1ccc(CCNC(=O)c2ccc(Cc3ncc(CC(=O)O)c4ccccc34)cc2)cc1 [Example 156]
43 | < 50 nM |  | COc1ccc(CCNC(=O)c2ccc(Cc3ncc(CC(=O)O)c4ccccc34)cc2)cc1Cl [Example 157]
44 | < 50 nM |  | O=C(O)Cc1cnc(Cc2ccc(C(=O)Nc3ccc(Cl)c(Cl)c3)cc2)c2ccccc12 [Example 158]
45 | < 50 nM |  | O=C(O)Cc1cnc(Cc2ccc(C(=O)Nc3ccc(Cl)cc3)cc2)c2ccccc12 [Example 159]
46 | < 50 nM |  | O=C(O)Cc1cnc(Cc2ccc(C(=O)NCCc3ccc(Cl)c(Cl)c3)cc2)c2ccccc12 [Example 160]
47 | 50 to 500 nM |  | O=C(O)Cc1cnc(Cc2ccc(C(=O)NCCc3ccccc3)cc2)c2ccccc12 [Example 161, (1-{4-[(2-phenylethyl)carbamoyl]benzyl}isoquinolin-4-yl)acetic acid]
48 | < 50 nM |  | O=C(O)Cc1cnc(Cc2ccc(C(=O)NCCc3ccccc3Cl)cc2)c2ccccc12 [Example 162]
49 | < 50 nM |  | O=C(O)Cc1cnc(Cc2ccc(C(=O)NCCCc3ccc(Cl)cc3)cc2)c2ccccc12 [Example 164]
50 | < 50 nM |  | Cc1ccc(CCNC(=O)c2ccc(Cc3ncc(CC(=O)O)c4ccccc34)cc2)cc1 [Example 165]
51 | < 50 nM |  | Cc1cccc(CCNC(=O)c2ccc(Cc3ncc(CC(=O)O)c4ccccc34)cc2)c1 [Example 166]
52 | < 50 nM |  | Cc1ccccc1CCNC(=O)c1ccc(Cc2ncc(CC(=O)O)c3ccccc23)cc1 [Example 167]
